Several values for one entry are separate records, joined by “and”; a condition that tells them apart may be missing. Equal entries are not always repeated. Inconclusive results and toxic doses are left out.
Test system: CD2F1 mice, L1210 leukemia ip, survival T/C
Experiment: NCI In Vivo Anticancer Drug Screen. Data for tumor model L1210 Leukemia (intraperitoneal) in CD2F1 (CDF1) mice
Details: higher = longer survival
Summary of the method: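 Compound-dosed mice with transplantable tumor versus matched vehicle controls; endpoint ratio T/C reported.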

[1] = endpoint: mean survival time, dose: 100.0 mg/kg/injection, schedule: Q04DX002 (ip), vehicle: saline with Tween-80
[2] = endpoint: mean survival time, dose: 200.0 mg/kg/injection, schedule: Q04DX002 (ip), vehicle: saline with Tween-80
[3] = endpoint: mean survival time, dose: 25.0 mg/kg/injection, schedule: Q04DX002 (ip), vehicle: saline with Tween-80
[4] = endpoint: mean survival time, dose: 100.0 mg/kg/injection, schedule: Q04DX003 (ip), vehicle: saline with Tween-80
[5] = endpoint: mean survival time, dose: 200.0 mg/kg/injection, schedule: Q04DX003 (ip), vehicle: saline with Tween-80
[6] = endpoint: mean survival time, dose: 400.0 mg/kg/injection, schedule: Q04DX003 (ip), vehicle: saline with Tween-80

`CCCCCCCCCCCCCCCC(=O)OCC1OC(n2ccc(N)nc2=O)C(O)C1O` (centres undefined) was tested, and the T/C (endpoint: mean survival time, dose: 6.25 mg/kg/injection, schedule: Q01DX008 (ip), vehicle: saline) was 320 % of control, the T/C (endpoint: mean survival time, dose: 12.5 mg/kg/injection, schedule: Q01DX008 (ip), vehicle: saline) was 377 % of control and the T/C (endpoint: mean survival time, dose: 16.0 mg/kg/injection, schedule: Q01DX008 (oral), vehicle: saline) was 117 % of control. The T/C (endpoint: mean survival time, dose: 16.0 mg/kg/injection, schedule: Q03HX024 (oral), vehicle: saline with Tween-80) was 202 % of control, the T/C (endpoint: mean survival time, dose: 20.0 mg/kg/injection, schedule: Q01DX009 (ip), vehicle: saline with Tween-80) was 479 % of control and the T/C (endpoint: mean survival time, dose: 25.0 mg/kg/injection, schedule: Q01DX001 (ip), vehicle: saline with Tween-80) was 150 % of control. For the same compound, the T/C (endpoint: mean survival time, dose: 25.0 mg/kg/injection, schedule: Q01DX008 (ip), vehicle: saline) was 491 % of control, the T/C (endpoint: mean survival time, dose: 25.0 mg/kg/injection, schedule: Q01DX009 (ip), vehicle: saline with Tween-80) was 484 % of control and the T/C (endpoint: mean survival time, dose: 30.0 mg/kg/injection, schedule: Q01DX009 (ip), vehicle: saline with Tween-80) was 184 % of control. The T/C (endpoint: mean survival time, dose: 32.0 mg/kg/injection, schedule: Q03HX024 (oral), vehicle: saline with Tween-80) was 235 % of control, the T/C (endpoint: mean survival time, dose: 50.0 mg/kg/injection, schedule: Q01DX001 (ip), vehicle: saline with Tween-80) was 192 % of control and the T/C (endpoint: mean survival time, dose: 50.0 mg/kg/injection, schedule: Q01DX008 (ip), vehicle: saline) was 285 % of control. For the same compound, the T/C (endpoint: mean survival time, dose: 64.0 mg/kg/injection, schedule: Q03HX024 (oral), vehicle: saline with Tween-80) was 265 % of control, the T/C (endpoint: mean survival time, dose: 100.0 mg/kg/injection, schedule: Q01DX001 (ip), vehicle: saline with Tween-80) was 312 % of control and the T/C (endpoint: mean survival time, dose: 125.0 mg/kg/injection, schedule: Q01DX001 (ip), vehicle: saline with Tween-80) was 580 % of control. For the same compound, the T/C (endpoint: mean survival time, dose: 128.0 mg/kg/injection, schedule: Q01DX001 (oral), vehicle: saline with Tween-80) was 102 % of control, the T/C (endpoint: mean survival time, dose: 128.0 mg/kg/injection, schedule: Q01DX008 (oral), vehicle: saline) was 151 % of control and the T/C (endpoint: mean survival time, dose: 128.0 mg/kg/injection, schedule: Q03HX024 (oral), vehicle: saline with Tween-80) was 295 % of control. For the same compound, the T/C (endpoint: mean survival time, dose: 128.0 mg/kg/injection, schedule: Q04DX003 (oral), vehicle: saline) was 119 % of control, the T/C (endpoint: mean survival time, dose: 150.0 mg/kg/injection, schedule: Q01DX001 (ip), vehicle: saline with Tween-80) was 608 % of control and the T/C (endpoint: mean survival time, dose: 200.0 mg/kg/injection, schedule: Q01DX001 (ip), vehicle: saline with Tween-80) was 612 % of control. The T/C (endpoint: mean survival time, dose: 250.0 mg/kg/injection, schedule: Q01DX001 (ip), vehicle: saline with Tween-80) was 214 % of control, the T/C (endpoint: mean survival time, dose: 256.0 mg/kg/injection, schedule: Q01DX001 (oral), vehicle: saline with Tween-80) was 101 % of control and the T/C (endpoint: mean survival time, dose: 300.0 mg/kg/injection, schedule: Q01DX001 (ip), vehicle: saline with Tween-80) was 83 % of control. The T/C (endpoint: mean survival time, dose: 512.0 mg/kg/injection, schedule: Q01DX001 (oral), vehicle: saline with Tween-80) was 108 % of control, the T/C (endpoint: mean survival time, dose: 512.0 mg/kg/injection, schedule: Q01DX009 (oral), vehicle: saline) was 169 % of control and the T/C (endpoint: mean survival time, dose: 1024.0 mg/kg/injection, schedule: Q01DX001 (oral), vehicle: saline with Tween-80) was 109 % of control. For the same compound, the T/C (endpoint: mean survival time, dose: 1024.0 mg/kg/injection, schedule: Q01DX009 (oral), vehicle: saline) was 177 % of control.
In the case of `CC(=O)Nc1ccc2c(c1)CCCC2`, the T/C [1] is reported as 101 % of control, the T/C [2] is reported as 104 % of control and the T/C (endpoint: mean survival time, dose: 400.0 mg/kg/injection, schedule: Q04DX002 (ip), vehicle: saline with Tween-80) is reported as 104 % of control.
With `COc1ccc(-n2cnc3c(cnn3C3OC(CO)C(O)C3O)c2=O)cc1` (centres undefined) the T/C (endpoint: median survival time, dose: 12.5 mg/kg/injection, schedule: Q01DX005 (ip), vehicle: saline) was 105 % of control, the T/C (endpoint: median survival time, dose: 25.0 mg/kg/injection, schedule: Q01DX005 (ip), vehicle: saline) was 102 % of control and the T/C (endpoint: median survival time, dose: 50.0 mg/kg/injection, schedule: Q01DX005 (ip), vehicle: saline) was 102 % of control. The T/C (endpoint: median survival time, dose: 100.0 mg/kg/injection, schedule: Q01DX005 (ip), vehicle: saline) was 105 % of control and the T/C (endpoint: median survival time, dose: 200.0 mg/kg/injection, schedule: Q01DX005 (ip), vehicle: saline) was 106 % of control.
In the case of `C=C[CH2][Sn]([Br])([c]1ccccc1)[c]1ccccc1`, the T/C (endpoint: mean survival time, dose: 6.25 mg/kg/injection, schedule: Q01DX009 (ip), vehicle: saline with Tween-80) is reported as 94 % of control and the T/C [3] is reported as 89 % of control.
With `Cc1ccc(S(=O)(=O)OCCOCCOCCOS(=O)(=O)c2ccc(C)cc2)cc1` the T/C [4] was 101 % of control, the T/C [5] was 101 % of control and the T/C [6] was 101 % of control.
For `Nc1ccc(S(=O)(=O)O)c2ccccc12`, the T/C (endpoint: mean survival time, dose: 50.0 mg/kg/injection, schedule: Q01DX009 (ip), vehicle: Klucel (hydroxypropylcellulose) (HPC)) was 86 % of control, the T/C (endpoint: mean survival time, dose: 100.0 mg/kg/injection, schedule: Q01DX009 (ip), vehicle: Klucel (hydroxypropylcellulose) (HPC)) was 104 % of control and the T/C (endpoint: mean survival time, dose: 100.0 mg/kg/injection, schedule: Q04DX003 (ip), vehicle: saline) was 97 % of control. The T/C (endpoint: mean survival time, dose: 200.0 mg/kg/injection, schedule: Q01DX009 (ip), vehicle: Klucel (hydroxypropylcellulose) (HPC)) was 104 % of control, the T/C (endpoint: mean survival time, dose: 200.0 mg/kg/injection, schedule: Q04DX003 (ip), vehicle: saline) was 101 % of control and the T/C (endpoint: mean survival time, dose: 400.0 mg/kg/injection, schedule: Q04DX003 (ip), vehicle: saline) was 103 % of control.
For `CC1=C(/C=C/C(=O)CC(O)(C(F)(F)F)C(F)(F)F)C(C)(C)CCC1`, the T/C [4] was 104 % of control, the T/C [5] was 98 % of control and the T/C [6] was 101 % of control.
In the case of `c1ccc(N(c2ccccn2)c2ccccn2)nc1`, the T/C [3] is reported as 101 % of control, the T/C (endpoint: mean survival time, dose: 50.0 mg/kg/injection, schedule: Q04DX002 (ip), vehicle: saline with Tween-80) is reported as 101 % of control and the T/C [1] is reported as 97 % of control. For the same compound, the T/C [2] was 97 % of control.
In the case of `CC(C)(C)NC(=O)CCC(CC(=O)NC(C)(C)C)OCc1ccccc1` (centres undefined), the T/C (endpoint: mean survival time, dose: 50.0 mg/kg/injection, schedule: Q01DX009 (ip), vehicle: saline with Tween-80) is reported as 100 % of control, the T/C (endpoint: mean survival time, dose: 100.0 mg/kg/injection, schedule: Q01DX009 (ip), vehicle: saline with Tween-80) is reported as 104 % of control and the T/C [4] is reported as 101 % of control. The T/C (endpoint: mean survival time, dose: 200.0 mg/kg/injection, schedule: Q01DX009 (ip), vehicle: saline with Tween-80) was 102 % of control, the T/C [5] was 106 % of control and the T/C (endpoint: mean survival time, dose: 400.0 mg/kg/injection, schedule: Q01DX009 (ip), vehicle: saline with Tween-80) was 93 % of control. The T/C [6] was 93 % of control.
For `NC(=O)CCC(N)C(=O)O` (centres undefined), the T/C (endpoint: mean survival time, dose: 1.56 mg/kg/injection, schedule: Q01DX009 (ip), vehicle: saline) was 93 % of control, the T/C (endpoint: mean survival time, dose: 3.13 mg/kg/injection, schedule: Q01DX009 (ip), vehicle: saline) was 104 % of control and the T/C (endpoint: mean survival time, dose: 6.25 mg/kg/injection, schedule: Q01DX009 (ip), vehicle: saline) was 104 % of control. The T/C (endpoint: median survival time, dose: 25.0 mg/kg/injection, schedule: Q01DX009 (ip), vehicle: saline) was 94 % of control, the T/C (endpoint: median survival time, dose: 50.0 mg/kg/injection, schedule: Q01DX009 (ip), vehicle: saline) was 106 % of control and the T/C (endpoint: median survival time, dose: 100.0 mg/kg/injection, schedule: Q01DX009 (ip), vehicle: saline) was 106 % of control. For the same compound, the T/C (endpoint: median survival time, dose: 200.0 mg/kg/injection, schedule: Q01DX009 (ip), vehicle: saline) was 106 % of control and the T/C (endpoint: median survival time, dose: 400.0 mg/kg/injection, schedule: Q01DX009 (ip), vehicle: saline) was 104 % of control.
For `CC1OC(n2cc(Br)c(=O)[nH]c2=O)C(O)C(O)C1O` (centres undefined), the T/C (endpoint: mean survival time, dose: 12.5 mg/kg/injection, schedule: Q01DX005 (ip), vehicle: water) was 99 % of control, the T/C (endpoint: mean survival time, dose: 25.0 mg/kg/injection, schedule: Q01DX005 (ip), vehicle: water) was 101 % of control and the T/C (endpoint: mean survival time, dose: 50.0 mg/kg/injection, schedule: Q01DX005 (ip), vehicle: water) was 105 % of control. The T/C (endpoint: mean survival time, dose: 100.0 mg/kg/injection, schedule: Q01DX005 (ip), vehicle: water) was 100 % of control and the T/C (endpoint: mean survival time, dose: 200.0 mg/kg/injection, schedule: Q01DX005 (ip), vehicle: water) was 99 % of control.
`O=C1C=CC(=O)c2nc3c(nc21)[nH]c1ccccc13` was tested, and the T/C (endpoint: mean survival time, dose: 75.0 mg/kg/injection, schedule: Q01DX001 (ip), vehicle: saline) was 101 % of control, the T/C (endpoint: mean survival time, dose: 150.0 mg/kg/injection, schedule: Q01DX001 (ip), vehicle: saline) was 98 % of control and the T/C (endpoint: mean survival time, dose: 300.0 mg/kg/injection, schedule: Q01DX001 (ip), vehicle: saline) was 97 % of control.
In the case of `O=C(O)/C=C/C(=O)NC1CCCCC1`, the T/C [4] is reported as 97 % of control and 101 % of control, the T/C [5] is reported as 101 % of control and 97 % of control and the T/C [6] is reported as 98 % of control and 95 % of control.
With `CC(=O)Nc1nc(Br)c2ccccc2c1-c1ccc(N)cc1` the T/C (endpoint: mean survival time, dose: 50.0 mg/kg/injection, schedule: Q04DX003 (ip), vehicle: other) was 97 % of control, the T/C (endpoint: mean survival time, dose: 100.0 mg/kg/injection, schedule: Q04DX003 (ip), vehicle: other) was 94 % of control and the T/C (endpoint: mean survival time, dose: 200.0 mg/kg/injection, schedule: Q04DX003 (ip), vehicle: other) was 94 % of control. For the same compound, the T/C (endpoint: mean survival time, dose: 400.0 mg/kg/injection, schedule: Q04DX003 (ip), vehicle: other) was 102 % of control.

— PubChem BioAssay AID256 (DTP/NCI, 2004)
